How the values were obtained:
[1] = Toxicity: vital organs' indices and histopathology in EAC solid tumor bearing mice; assay type: in vivo, Swiss albino mice; conditions: for Brain Index / Heart Index / Kidney Index / Liver Index: mean ± SD (n = 6)
CD31 and CD34 (% MVD) = test: Immunohistochemistry of EAC solid tumor sections, microvessel density (CD31, CD34); conditions: oral treatment of EAC-bearing mice
active caspase 3 = test: Immunohistochemistry of EAC solid tumor sections, active caspase 3; conditions: oral treatment of EAC-bearing mice
c-Kit = c-Kit (Homo sapiens, UniProt P10721); test: In vitro multiple-kinase inhibition assay, c-Kit (ADP-Glo); assay type: biochemical
Experimental: (§1) In vitro multiple-kinase inhibition assay. […] Kinase enzymatic activity of the tested compounds was evaluated against a reference kinase inhibitor at 10 μM (Table 2).
(§2) The multiple kinases activity at single dose concentration of 10 μM was performed, c-Kit, c-Raf, c-Src, RET served as the enzyme source. […] Kinase-Glo Plus Luminescence kinase assay kit (Promega#V3772), ADP-Glo Luminescence assay kit was used for c-kit assay (Supplementary). […]
(§3) mM MgCl2, 0.1 mg/ml BSA, 1 mM DTT, 10 µM ATP, Kinase substrate and VEGFR. After the enzymatic reaction, 50 µl of Kinase-Glo Plus Luminescence kinase assay solution (Promega) was added to each reaction and incubate the plate for 5 minutes at room temperature.
(§4) Luminescence signal was measured using a BioTek Synergy 2 microplate reader. VEGFR activity assays were performed in duplicate at each concentration.
(§5) The luminescence data were analyzed using the computer software, Graphpad Prism. The difference between luminescence intensities in the absence of VEGFR (Lut) and in the presence of VEGFR (Luc) was defined as 100 % activity (Lut – Luc). Using luminescence signal (Lu) in the presence of the compound, % activity was calculated as:
(§6) % activity = {(Lut - Lu)/(Lut - Luc)}×100%, where Lu= the luminescence intensity in the […]
(§7) IC50 determination for inhibitor against VEGFR was calculated. The values of % activity versus a series of compound concentrations (1 nM - 10 nM - 100 nM - 1 µM - 10 µM) were then […]
(§8) or Hill coefficient. The IC50 value was determined by the concentration causing a half-maximal […]
(§9) In vitro multiple-kinase inhibition assay
The assay was performed using the same conditions for VEGFR-2 activity assay (section 5.2.1.1). The assays for c-Kit was an exception, it was performed using ADP-Glo Kinase assay reagents (Promega). It measures kinase activity by quantitating the ADP amount produced from the enzymatic reaction. The luminescent signal from the assay is correlated with the amount of ADP present and is directly correlated with the amount of kinase activity. Other conditions are same to the previous section except the final reaction volume was reduced to 25 µl. After the 40 min kinase reaction at 30 °C, 25 µl of ADP-Glo reagent was added and incubated for 45 min at room temperature followed by another 50 min incubation with 50 µl of Kinase detection mixture.
(§10) Luminescence signal was measured using a BioTek Synergy 2 microplate reader […]
(§11) The luminescence data were analyzed using the same computer software and the same protocol

RET = RET (Homo sapiens, UniProt P07949); test: In vitro multiple-kinase inhibition assay, RET; assay type: biochemical
Experimental: as §1, §2, §3, §4, §5, §6, §7, §8, §9, §10, §11

phospho-VEGFR-2 (Tyr951) = phospho-VEGFR-2 (Tyr951) (Mus musculus, UniProt P35918); test: Immunohistochemistry of EAC solid tumor sections, phospho-VEGFR-2; conditions: oral treatment of EAC-bearing mice
[2] = system: Ehrlich ascites carcinoma (EAC) solid tumor; test: In vivo anticancer activity, EAC solid tumor murine model; parameters: species or system Swiss albino mice; conditions: for TGI (%): once daily for 8 consecutive days; for Histopathological examination of EAC tumor sections (necrosis): hematoxylin-eosin, 40x
Experimental: Animals. Female Swiss albino mice weighing 15–20 g were used in the present study. They were obtained from the animal breeding laboratory, National Cancer Institute (NCI), Cairo University, Egypt. Animals were kept in our animal facility, faculty of pharmacy, Ain Shams university at 25 ± 2 °C and a relative humidity of 40–45% with alternative day and night cycles of 12 h each. Animals had free access to pellet food and water ad libitum. Standard diet pellets (El-Nasr, Abu Zaabal, Egypt) contained not less than 20% protein, 5% fiber, 3.5% fat, 6.5% ash and a vitamin mixture. Animal care and experiments were conducted in accordance with the protocols approved by the Ethics Research Committee, Faculty of Pharmacy, Ain Shams University, following the Institutional Animal Care and Use Committee guidelines.
Tumor cells preparation and transplantation. Ehrlich ascites carcinoma (EAC) cells were obtained from NCI, Cairo University, Egypt. EAC cells were maintained in the ascitic form in Swiss albino mice by intraperitoneal transplantation of each mouse every 10 days. Ascitic fluid was drawn from tumor-bearing mice at the log phase (7–8th day of tumor bearing) of the tumor cells. The freshly drawn fluid was diluted with ice-cold sterile isotonic saline. 200 μl tumor cell suspension containing 2 × 10^6 tumor cells were then subcutaneously injected in each mouse.
Experimental design. Swiss albino mice were divided into six groups (n = 6 per group).
Evaluation of effectiveness. Tumor growth curve was drawn according to the change in tumor volume from first day of treatment (day 0) till day 7. Longest and shortest diameters of the solid tumor were monitored using a digital vernier caliper. Tumor volume (TV) of each animal was calculated using the following formula: […]
Tumor growth inhibition (TGI) was calculated as follows.
RTV = (Tumor volume at the day of measurement)/Tumor volume at the initial day.
Histopathological Examination
thickness by slidge microtome.
graded ethanol solutions.

[3] = system: VEGF-induced vascular permeability (Evans Blue extravasation); test: Miles vascular permeability assay; parameters: species or system mice; conditions: in vivo; 10 mg/kg (Fig. 15)
Experimental: Miles Vascular Permeability Assay. One to two days prior to the experiment, mice were shaved to expose the skin. Mice were anesthetized with intra-peritoneal injection of Avertin. A sterile solution of 1% Evans Blue (EB) in PBS was prepared and 100 μl was injected IV into the tail vein, using a needle (small gauge, 27–30) at a 10–15 degree angle. The animals were then left for (30–60) min. VEGF (50 μl of 1 ng/μl) and 50 μl of PBS with 0.05% gelatin were injected intradermally using a 30-gauge needle into the skin overlying the back. After 20 min, the animals were sacrificed by cervical dislocation that is recommended to limit significant interference with vascular permeability. The skin was opened, exposed and representative pictures were taken to assess the intensity of EB […]. The Formamide/EB mixture was centrifuged and supernatant absorbance was measured at 600 nm (Shimadzu Spectrophotometer, UV-1601; Japan). extravasation was calculated as ng EB per mg tissue.

c-Kit, sequence (P10721 26-976): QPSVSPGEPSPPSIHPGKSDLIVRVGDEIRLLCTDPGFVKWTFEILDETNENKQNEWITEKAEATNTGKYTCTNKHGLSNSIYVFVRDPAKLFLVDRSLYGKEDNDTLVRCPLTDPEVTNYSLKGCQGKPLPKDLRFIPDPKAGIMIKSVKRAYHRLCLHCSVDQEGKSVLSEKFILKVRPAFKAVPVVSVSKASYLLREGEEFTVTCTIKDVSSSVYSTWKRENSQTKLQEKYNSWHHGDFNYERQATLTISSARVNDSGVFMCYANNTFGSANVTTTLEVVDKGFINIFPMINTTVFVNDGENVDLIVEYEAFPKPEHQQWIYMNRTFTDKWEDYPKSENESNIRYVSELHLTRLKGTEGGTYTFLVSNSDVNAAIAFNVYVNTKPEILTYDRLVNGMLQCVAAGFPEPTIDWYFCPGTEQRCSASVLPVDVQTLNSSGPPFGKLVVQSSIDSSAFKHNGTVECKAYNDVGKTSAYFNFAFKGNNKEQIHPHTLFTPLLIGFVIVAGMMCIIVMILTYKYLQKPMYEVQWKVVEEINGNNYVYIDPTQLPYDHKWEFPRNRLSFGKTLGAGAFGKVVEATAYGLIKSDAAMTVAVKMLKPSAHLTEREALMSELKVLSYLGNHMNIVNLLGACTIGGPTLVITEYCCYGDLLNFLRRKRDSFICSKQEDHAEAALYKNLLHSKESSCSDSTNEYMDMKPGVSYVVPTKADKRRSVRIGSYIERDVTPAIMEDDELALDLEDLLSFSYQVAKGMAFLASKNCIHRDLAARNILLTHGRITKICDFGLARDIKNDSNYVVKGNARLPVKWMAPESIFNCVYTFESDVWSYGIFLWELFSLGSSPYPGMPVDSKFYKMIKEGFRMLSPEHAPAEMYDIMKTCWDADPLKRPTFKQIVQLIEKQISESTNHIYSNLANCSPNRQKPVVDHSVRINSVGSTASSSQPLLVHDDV
RET, sequence (P07949 29-1114, species assumed): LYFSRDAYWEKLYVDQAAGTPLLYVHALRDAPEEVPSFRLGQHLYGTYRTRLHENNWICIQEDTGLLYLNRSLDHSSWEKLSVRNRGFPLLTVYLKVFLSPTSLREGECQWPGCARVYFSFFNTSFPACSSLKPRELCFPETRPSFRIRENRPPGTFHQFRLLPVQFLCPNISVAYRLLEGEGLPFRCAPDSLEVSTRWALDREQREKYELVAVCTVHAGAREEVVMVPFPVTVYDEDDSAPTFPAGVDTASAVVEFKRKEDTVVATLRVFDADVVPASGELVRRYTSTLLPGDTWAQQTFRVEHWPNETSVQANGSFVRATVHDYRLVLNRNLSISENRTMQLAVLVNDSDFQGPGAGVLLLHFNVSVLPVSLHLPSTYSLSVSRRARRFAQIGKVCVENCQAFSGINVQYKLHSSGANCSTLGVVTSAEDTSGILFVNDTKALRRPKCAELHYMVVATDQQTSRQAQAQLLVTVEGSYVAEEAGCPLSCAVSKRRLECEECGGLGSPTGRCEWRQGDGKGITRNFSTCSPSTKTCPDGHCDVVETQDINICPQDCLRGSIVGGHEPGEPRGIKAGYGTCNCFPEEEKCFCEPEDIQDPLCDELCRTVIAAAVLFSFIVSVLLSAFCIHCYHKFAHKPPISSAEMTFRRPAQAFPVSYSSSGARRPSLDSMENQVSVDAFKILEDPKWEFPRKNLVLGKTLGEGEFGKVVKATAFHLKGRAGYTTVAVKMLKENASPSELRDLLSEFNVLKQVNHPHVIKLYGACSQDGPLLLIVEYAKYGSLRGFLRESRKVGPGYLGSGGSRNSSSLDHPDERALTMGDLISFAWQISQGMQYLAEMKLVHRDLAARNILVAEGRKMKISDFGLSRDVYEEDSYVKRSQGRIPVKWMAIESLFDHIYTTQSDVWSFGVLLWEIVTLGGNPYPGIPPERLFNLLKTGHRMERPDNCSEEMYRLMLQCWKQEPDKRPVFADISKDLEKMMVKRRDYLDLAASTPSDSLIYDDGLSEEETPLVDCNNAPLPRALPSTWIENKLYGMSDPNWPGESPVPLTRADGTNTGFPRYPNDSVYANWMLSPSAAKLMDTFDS
phospho-VEGFR-2 (Tyr951), sequence (P35918 20-1345): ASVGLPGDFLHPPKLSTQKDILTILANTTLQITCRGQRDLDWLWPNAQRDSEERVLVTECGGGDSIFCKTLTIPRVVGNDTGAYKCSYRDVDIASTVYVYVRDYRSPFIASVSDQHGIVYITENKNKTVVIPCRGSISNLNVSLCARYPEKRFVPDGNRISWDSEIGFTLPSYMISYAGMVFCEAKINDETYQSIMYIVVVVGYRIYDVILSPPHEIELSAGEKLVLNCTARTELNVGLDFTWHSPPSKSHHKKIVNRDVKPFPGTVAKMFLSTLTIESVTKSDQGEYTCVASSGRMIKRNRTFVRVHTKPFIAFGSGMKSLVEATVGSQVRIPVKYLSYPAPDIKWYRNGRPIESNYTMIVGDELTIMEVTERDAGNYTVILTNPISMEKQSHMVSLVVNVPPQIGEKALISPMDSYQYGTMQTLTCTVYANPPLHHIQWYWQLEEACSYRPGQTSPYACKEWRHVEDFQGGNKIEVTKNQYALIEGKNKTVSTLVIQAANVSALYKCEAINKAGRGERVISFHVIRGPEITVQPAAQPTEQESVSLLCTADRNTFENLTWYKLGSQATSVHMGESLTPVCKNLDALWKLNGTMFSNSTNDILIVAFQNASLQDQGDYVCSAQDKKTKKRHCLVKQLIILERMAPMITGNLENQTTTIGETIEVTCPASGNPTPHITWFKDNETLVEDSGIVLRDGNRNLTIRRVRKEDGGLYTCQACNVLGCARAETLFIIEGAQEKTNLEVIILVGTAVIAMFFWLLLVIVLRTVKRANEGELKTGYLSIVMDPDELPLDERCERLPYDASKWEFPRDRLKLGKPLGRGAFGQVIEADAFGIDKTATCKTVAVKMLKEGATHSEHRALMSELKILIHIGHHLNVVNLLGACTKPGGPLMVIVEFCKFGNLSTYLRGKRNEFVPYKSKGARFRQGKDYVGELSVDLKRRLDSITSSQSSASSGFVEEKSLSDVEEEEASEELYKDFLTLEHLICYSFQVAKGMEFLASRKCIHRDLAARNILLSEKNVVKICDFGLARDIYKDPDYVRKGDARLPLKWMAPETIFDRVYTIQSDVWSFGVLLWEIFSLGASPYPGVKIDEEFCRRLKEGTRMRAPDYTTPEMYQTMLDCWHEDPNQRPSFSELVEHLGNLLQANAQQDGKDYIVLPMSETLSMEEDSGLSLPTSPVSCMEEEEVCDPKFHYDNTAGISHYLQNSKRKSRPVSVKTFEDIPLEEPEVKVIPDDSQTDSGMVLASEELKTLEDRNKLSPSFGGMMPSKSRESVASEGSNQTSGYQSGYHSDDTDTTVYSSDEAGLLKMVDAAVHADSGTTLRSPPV

With `Cc1cccc(NC(=O)Nc2ccc(Oc3ncnc4sc5c(c34)CCCC5)cc2)c1` [Compound 21b] the “Brain Index” value ([1]; 5 mg/kg/day po) was 0.0164 ± 0.004, the “Heart Index” value ([1]; 5 mg/kg/day po) was 0.0048 ± 0.0014 and the “Kidney Index” value ([1]; 5 mg/kg/day po) was 0.012 ± 0.003. The “Liver Index” value ([1]; 5 mg/kg/day po) was 0.049 ± 0.01, the “Brain Index” value ([1]; 10 mg/kg/day po) was 0.0167 ± 0.004 and the “Heart Index” value ([1]; 10 mg/kg/day po) was 0.0046 ± 0.0017. The “Kidney Index” value ([1]; 10 mg/kg/day po) was 0.011 ± 0.003, the “Liver Index” value ([1]; 10 mg/kg/day po) was 0.051 ± 0.017 and the “Histopathological examination of liver, kidney, heart and brain samples” value ([1]; 10 mg/kg, EAC solid tumor bearing mice (40x)) was “focally degenerated hepatocytes”. The “Toxicity (overall statement)” value ([1]; oral, 5 and 10 mg/kg/day for 8 consecutive days) was “did not show any noticeable toxicity”, the “%MVD in EAC solid tumor” value (CD31 and CD34 (% MVD)) was “reduction of %MVD” and the “Active caspase 3 levels in EAC solid tumor” value (active caspase 3) was “increased active caspase 3 levels”. For the same compound, the inhibition at 10 µM (c-Kit) was 81%, the inhibition at 10 µM (RET) was 87% and the “VEGFR-2 phosphorylation in EAC solid tumor” value (phospho-VEGFR-2 (Tyr951)) was “decreased VEGFR-2 phosphoryaltion”. The “Tumor Index” value ([2]; 5 mg/kg/day po, 8 consecutive days, mean ± SD, n = 6) was 0.041 ± 0.016, the “TGI (%)” value ([2]; 5 mg/kg/day po) was 70.7% and the “Histopathological examination of EAC tumor sections (necrosis)” value ([2]; 5 mg/kg) was “mild focal necrosis”. The “TGI (%)” value ([2]; 10 mg/kg/day po) was 86.4%, the “Histopathological examination of EAC tumor sections (necrosis)” value ([2]; 10 mg/kg) was “moderate diffuse necrosis” and the “Antiangiogenic effect in Miles vascular permeability assay” value [3] was “confirmed the antiangiogenic effects”.
Compound `COc1cccc(NC(=O)Nc2ccc(Oc3ncnc4sc5c(c34)CCCC5)cc2)c1` [Compound 21c] has an inhibition at 10 µM (c-Kit) of 83% and an inhibition at 10 µM (RET) of 91%.

Source: PMC4832243, “Discovery of Potent VEGFR-2 Inhibitors based on Furopyrimidine and Thienopyrimidne Scaffolds as Cancer Targeting Agents” (Scientific Reports, 2016)
